Measured values from article PMC7181201, “Dual P-Glycoprotein and CA XII Inhibitors: A New Strategy to Reverse the P-gp Mediated Multidrug Resistance (MDR) in Cancer Cells” (Molecules, 2020).

Key:
[1] = biological target: T1, P-gp (Homo sapiens, UniProt P08183); assay: Rhodamine-123 uptake test on K562/DOX cells (flow cytometry); type: cell-based
T1 construct: doxorubicin resistant K562/DOX cell line overexpresses almost exclusively the transporter membrane protein P-gp; endogenous in cells; host or cells: K562/DOX (doxorubicin-selected human erythroleukemia cells)
T1 sequence (P08183 whole entry): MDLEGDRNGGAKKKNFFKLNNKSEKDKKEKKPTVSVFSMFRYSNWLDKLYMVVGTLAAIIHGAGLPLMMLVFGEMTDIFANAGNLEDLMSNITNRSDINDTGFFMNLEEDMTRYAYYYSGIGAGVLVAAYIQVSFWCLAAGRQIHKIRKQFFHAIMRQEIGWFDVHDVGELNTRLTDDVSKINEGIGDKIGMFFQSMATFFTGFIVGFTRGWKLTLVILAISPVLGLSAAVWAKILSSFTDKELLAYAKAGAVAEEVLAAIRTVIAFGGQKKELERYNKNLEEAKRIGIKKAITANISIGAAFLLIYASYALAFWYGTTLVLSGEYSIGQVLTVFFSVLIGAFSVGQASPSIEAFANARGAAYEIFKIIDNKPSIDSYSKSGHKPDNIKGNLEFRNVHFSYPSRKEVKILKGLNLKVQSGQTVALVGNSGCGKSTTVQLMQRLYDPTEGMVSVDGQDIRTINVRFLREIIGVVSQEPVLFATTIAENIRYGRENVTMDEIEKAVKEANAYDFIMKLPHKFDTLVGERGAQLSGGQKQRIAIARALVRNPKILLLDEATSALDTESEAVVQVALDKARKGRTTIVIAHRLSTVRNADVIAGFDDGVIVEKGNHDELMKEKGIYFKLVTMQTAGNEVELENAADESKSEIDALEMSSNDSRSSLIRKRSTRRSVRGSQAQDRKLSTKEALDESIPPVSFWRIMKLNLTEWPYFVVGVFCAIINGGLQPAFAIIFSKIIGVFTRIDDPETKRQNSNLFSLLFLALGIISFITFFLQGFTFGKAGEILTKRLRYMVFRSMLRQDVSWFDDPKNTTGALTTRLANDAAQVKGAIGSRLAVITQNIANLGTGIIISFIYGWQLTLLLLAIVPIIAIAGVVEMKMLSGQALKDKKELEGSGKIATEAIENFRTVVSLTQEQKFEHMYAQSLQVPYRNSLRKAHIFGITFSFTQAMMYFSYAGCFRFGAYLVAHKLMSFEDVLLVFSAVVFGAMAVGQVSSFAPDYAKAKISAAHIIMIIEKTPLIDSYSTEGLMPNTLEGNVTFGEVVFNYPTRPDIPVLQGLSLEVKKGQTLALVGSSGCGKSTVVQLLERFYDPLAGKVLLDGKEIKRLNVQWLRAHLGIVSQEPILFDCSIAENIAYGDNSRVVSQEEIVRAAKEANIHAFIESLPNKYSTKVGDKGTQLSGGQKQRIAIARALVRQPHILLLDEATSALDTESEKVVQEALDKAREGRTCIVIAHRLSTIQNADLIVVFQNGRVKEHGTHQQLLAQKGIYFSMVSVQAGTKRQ
Description: The results were expressed as the FR (fluorescence ratio), which is the ratio between the average fluorescence intensity of rhodamine in the presence and in the absence of modulators. Value 1 was attributed to the average fluorescence intensity of the samples exposed only to rhodamine.
An aliquot of cells (control) was incubated with the fluorochrome in the absence of inhibitors.
At the end of the uptake, cells were sedimented, washed twice in ice-cold PBS, placed in PBS on ice, and kept in the dark until flow cytometric analysis.
The histograms were generated by program GraphPad Prism 5 (GraphPad Prism software, Inc., San Diego, CA, USA); the data were obtained from the ratio between the average fluorescence intensity of the samples preincubated with the compounds under study and subsequently exposed to rhodamine, and the fluorescence of the sample exposed only to the rhodamine.

[2] = biological target: T2, hCA I (Homo sapiens, UniProt P00915); assay: Stopped-flow CO2 hydrase assay, hCA I; type: biochemical; settings: mean from 3 assays
T2 construct: made in house
T2 sequence (P00915 whole entry): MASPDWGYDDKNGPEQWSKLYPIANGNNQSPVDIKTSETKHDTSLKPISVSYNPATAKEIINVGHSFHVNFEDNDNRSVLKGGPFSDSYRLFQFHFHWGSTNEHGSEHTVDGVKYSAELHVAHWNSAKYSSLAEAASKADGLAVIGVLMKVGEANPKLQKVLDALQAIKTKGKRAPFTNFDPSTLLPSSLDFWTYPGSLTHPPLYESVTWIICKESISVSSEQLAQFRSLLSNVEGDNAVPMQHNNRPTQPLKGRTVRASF
Description: (§1) An SX.18MV-R Applied Photophysics (Oxford, UK) stopped-flow instrument was used to assay the catalytic/inhibition of various CA isozymes. […] Saturated CO2 solutions in water at 25 °C were used as a substrate. Stock solutions of inhibitors were prepared at a concentration of 10 μM (in DMSO-water 1:1, v/v) and dilutions up to 0.01 nM done with the assay buffer mentioned above. […] Inhibitor and enzyme solutions were preincubated together for 10 min at room temperature prior to the assay, in order to allow for the formation of the E–I complex. […] The inhibition constants were obtained by non-linear least-squares methods using the Cheng–Prusoff equation, as reported earlier, and represent the mean from at least three different determinations. All CA isozymes used here were recombinant proteins obtained as reported earlier by our group.

[3] = biological target: T3, hCA II (Homo sapiens, UniProt P00918); assay: Stopped-flow CO2 hydrase assay, hCA II; type: biochemical; settings: for Ki: stopped flow, mean from 3 assays
T3 construct: made in house
Description: as §1

[4] = biological target: T4, hCA IX (Homo sapiens, UniProt Q16790); assay: Stopped-flow CO2 hydrase assay, hCA IX; type: biochemical; settings: stopped flow, mean from 3 assays
T4 construct: made in house
Description: as §1

[5] = biological target: T5, hCA XII (Homo sapiens, UniProt O43570); assay: Stopped-flow CO2 hydrase assay, hCA XII; type: biochemical; settings: for Ki: stopped flow, mean from 3 assays
T5 construct: made in house
T5 sequence (O43570 25-354): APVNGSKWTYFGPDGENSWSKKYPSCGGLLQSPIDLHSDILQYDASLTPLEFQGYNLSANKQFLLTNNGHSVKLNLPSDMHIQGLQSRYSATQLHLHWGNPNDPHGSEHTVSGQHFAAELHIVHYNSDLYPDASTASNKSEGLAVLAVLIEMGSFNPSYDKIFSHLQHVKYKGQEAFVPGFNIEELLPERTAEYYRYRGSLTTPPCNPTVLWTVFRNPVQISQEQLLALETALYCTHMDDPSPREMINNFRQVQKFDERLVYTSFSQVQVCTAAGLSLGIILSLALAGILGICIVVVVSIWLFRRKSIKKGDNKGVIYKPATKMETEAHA
Description: as §1

Row | hCA II vs. hCA XII preference ([3]; ratio of Ki values) [times] | Compound | FR (fluorescence ratio, Rhd 123 uptake with/without modulator) ([1]; compound 3 µM) | FR (fluorescence ratio, Rhd 123 uptake with/without modulator) ([1]; compound 30 µM) | Ki [2] [nM] | Ki [3] [nM] | Ki [4] [nM] | Ki [5] [nM] | preference for hCA XII with respect to hCA IX ([5]; ratio of Ki values)
1 |  | COc1cc(/C=C/C(=O)OCCCN(C)CCCOC(=O)COc2ccc3ccc(=O)oc3c2)cc(OC)c1OC [Compound 1, (E)-3-(methyl(3-(2-((2-oxo-2H-chromen-7-yl)oxy)acetoxy)propyl)amino)propyl 3-(3,4,5-trimethoxyphenyl)acrylate] | 1.44 | 4.76 | > 10000 | > 10000 | 142 | 9.3 | 
2 |  | COc1cc(/C=C/C(=O)OCCCCCN(C)CCCOC(=O)COc2ccc3ccc(=O)oc3c2)cc(OC)c1OC [Compound 3, (E)-5-(methyl(3-(2-((2-oxo-2H-chromen-7-yl)oxy)acetoxy)propyl)amino)pentyl 3-(3,4,5-trimethoxyphenyl)acrylate] | 1.00 | 2.58 | > 10000 | > 10000 | 54.6 | 48.8 | 
3 |  | COc1cc(/C=C/C(=O)OCCCCCN(C)CCCCCOC(=O)COc2ccc3ccc(=O)oc3c2)cc(OC)c1OC [Compound 4, (E)-5-(methyl(5-(2-((2-oxo-2H-chromen-7-yl)oxy)acetoxy)pentyl)amino)pentyl 3-(3,4,5-trimethoxyphenyl)acrylate] | 1.99 | 5.45 | > 10000 | > 10000 | 26.6 | 18.9 | 
4 |  | COc1cc(/C=C/C(=O)OCCCCCCN(C)CCCCOC(=O)COc2ccc3ccc(=O)oc3c2)cc(OC)c1OC [Compound 6, (E)-6-(methyl(4-(2-((2-oxo-2H-chromen-7-yl)oxy)acetoxy)butyl)amino)hexyl 3-(3,4,5-trimethoxyphenyl)acrylate] | 1.39 | 1.98 | > 10000 | > 10000 | 40.2 | 36.4 | 
5 |  | COc1cc(C(=O)OCCCN(C)CCCCCOC(=O)COc2ccc3ccc(=O)oc3c2)cc(OC)c1OC [Compound 9, 3-(methyl(5-(2-((2-oxo-2H-chromen-7-yl)oxy)acetoxy)pentyl)amino)propyl 3,4,5-trimethoxy benzoate] | 1.00 | 3.95 | > 10000 | > 10000 | 133 | 9.2 | 
6 |  | COc1cc(C(=O)OCCCCCCN(C)CCCOC(=O)COc2ccc3ccc(=O)oc3c2)cc(OC)c1OC [Compound 10, 6-(methyl(3-(2-((2-oxo-2H-chromen-7-yl)oxy)acetoxy)propyl)amino)hexyl 3,4,5-trimethoxy benzoate] | 1.16 | 2.18 | > 10000 | > 10000 | 103 | 8.9 | 
7 |  | COc1cc(C(=O)OCCCCCCCN(C)CCOC(=O)COc2ccc3ccc(=O)oc3c2)cc(OC)c1OC [Compound 11, 7-(methyl(2-(2-((2-oxo-2H-chromen-7-yl)oxy)acetoxy)ethyl)amino)heptyl 3,4,5-trimethoxy benzoate] | 1.11 | 1.58 | > 10000 | > 10000 | 97.1 | 8.3 | 
8 |  | CN(CCCCCOC(=O)COc1ccc2ccc(=O)oc2c1)CCCOC(=O)c1c2ccccc2cc2ccccc12 [Compound 12, 3-(methyl(5-(2-((2-oxo-2H-chromen-7-yl)oxy)acetoxy)pentyl)amino)propyl anthracene-9-carboxylate] | 1.00 | 2.53 | > 10000 | > 10000 | 151 | 45.7 | 
9 |  | CN(CCCCCCOC(=O)c1c2ccccc2cc2ccccc12)CCCOC(=O)COc1ccc2ccc(=O)oc2c1 [Compound 13, 6-(methyl(3-(2-((2-oxo-2H-chromen-7-yl)oxy)acetoxy)propyl)amino)hexyl anthracene-9-carboxylate] | 1.43 | 2.45 | > 10000 | > 10000 | 82.7 | 9.1 | nine
10 |  | CN(CCCCCCCOC(=O)c1c2ccccc2cc2ccccc12)CCOC(=O)COc1ccc2ccc(=O)oc2c1 [Compound 14, 7-(methyl(2-(2-((2-oxo-2H-chromen-7-yl)oxy)acetoxy)ethyl)amino)heptyl anthracene-9-carboxylate] | 1.25 | 4.22 | > 10000 | > 10000 | 126 | 42.9 | 
11 |  | COc1cc(/C=C/C(=O)OCCCN(C)CCCOC(=O)c2ccc(S(N)(=O)=O)cc2)cc(OC)c1OC [Compound 15, (E)-3-(methyl(3-((3-(3,4,5-trimethoxyphenyl)acryloyl)oxy)propyl)amino)propyl 4-sulfamoyl benzoate] | 1.00 | 2.30 | 55.1 | 152 | 178 | 91 | 
12 |  | COc1cc(/C=C/C(=O)OCCCN(C)CCCCCOC(=O)c2ccc(S(N)(=O)=O)cc2)cc(OC)c1OC [Compound 16, (E)-5-(methyl(3-((3-(3,4,5-trimethoxyphenyl)acryloyl)oxy)propyl)amino)pentyl 4-sulfamoyl benzoate] | 1.08 | 1.83 | 447 | 555 | 211 | 94.3 | 
13 |  | COc1cc(/C=C/C(=O)OCCCCCN(C)CCCOC(=O)c2ccc(S(N)(=O)=O)cc2)cc(OC)c1OC [Compound 17, (E)-3-(methyl(5-((3-(3,4,5-trimethoxyphenyl)acryloyl)oxy)pentyl)amino)propyl 4-sulfamoyl benzoate] | 1.13 | 3.90 | 56.6 | 204 | 215 | 33.1 | 
14 |  | COc1cc(/C=C/C(=O)OCCCCCN(C)CCCCCOC(=O)c2ccc(S(N)(=O)=O)cc2)cc(OC)c1OC [Compound 18, (E)-5-(methyl(5-((3-(3,4,5-trimethoxyphenyl)acryloyl)oxy)pentyl)amino)pentyl 4-sulfamoyl benzoate] | 1.00 | 4.99 | 62.6 | 425 | 226 | 62.6 | 
15 | 7 | COc1cc(/C=C/C(=O)OCCCCCCN(C)CCCOC(=O)c2ccc(S(N)(=O)=O)cc2)cc(OC)c1OC [Compound 19, (E)-3-(methyl(6-((3-(3,4,5-trimethoxyphenyl)acryloyl)oxy)hexyl)amino)propyl 4-sulfamoyl benzoate] | 1.06 | 3.23 | 510 | 8.4 | 39.7 | 58.6 | 
